Assay results taken from ChEMBL document CHEMBL1914384, “Design, synthesis, and structure-activity relationship studies of highly potent novel benzoxazinyl-oxazolidinone antibacterial agents” (J Med Chem, 2011).
≈ marks a conversion by molar mass, not a printed value.

How the values were obtained:
[1] = tested on: Staphylococcus aureus; assay: Antibacterial activity against linezolid-resistant Staphylococcus aureus after 16 hrs by agar dilution method; format: functional
[2] = tested on: Enterococcus faecalis; assay: Antibacterial activity against Linezolid-resistant Enterococcus faecalis after 16 hrs by agar dilution method relative to Linezolid; format: functional
[3] = tested on: Streptococcus pneumoniae; assay: Antibacterial activity against penicillin-resistant Streptococcus pneumoniae after 16 hrs by agar dilution method; format: functional
[4] = tested on: Staphylococcus epidermidis; assay: Antibacterial activity against methicillin-resistant Staphylococcus epidermidis after 16 hrs by agar dilution method relative to Linezolid; format: functional
[5] = Oral bioavailability in Sprague-Dawley rat at 50 mg/kg by LC-MS analysis; format: ADME, organism-based; conditions: in vivo
[6] = Half life in Sprague-Dawley rat at 50 mg/kg, po by LC-MS analysis; format: ADME, organism-based; parameters: dose 50 mg/kg, route oral; conditions: in vivo
[7] = tested on: Staphylococcus aureus; assay: Antibacterial activity against Staphylococcus aureus ATCC 19636 infected in mouse systemic infection model administered orally 1 hour after infection measured 48 hrs of post-treatment; format: functional; conditions: ATCC 19636, po
[8] = Tmax in Sprague-Dawley rat at 50 mg/kg, po by LC-MS analysis; format: ADME, organism-based; parameters: dose 50 mg/kg, route oral; conditions: in vivo
[9] = tested on: Streptococcus pneumoniae; assay: Antibacterial activity against penicillin-resistant Streptococcus pneumoniae after 16 hrs by agar dilution method relative to Linezolid; format: functional
[10] = tested on: Enterococcus faecalis; assay: Antibacterial activity against Enterococcus faecalis after 16 hrs by agar dilution method relative to Linezolid; format: functional
[11] = tested on: Staphylococcus aureus; assay: Antibacterial activity against Staphylococcus aureus ATCC 29213 after 16 hrs by agar dilution method; format: functional; conditions: ATCC 29213, 16 h
[12] = tested on: Enterococcus faecium; assay: Antibacterial activity against Linezolid-resistant Enterococcus faecium after 16 hrs by agar dilution method relative to Linezolid; format: functional
[13] = Cmax in Sprague-Dawley rat at 50 mg/kg, po by LC-MS analysis; format: ADME, organism-based; parameters: dose 50 mg/kg, route oral; conditions: in vivo
[14] = AUC (0 to infinity) in Sprague-Dawley rat at 10 mg/kg, iv by LC-MS analysis; format: ADME, organism-based; parameters: time infinity, dose 10 mg/kg, route intravenous; conditions: plasma
[15] = tested on: Staphylococcus epidermidis; assay: Antibacterial activity against linezolid-resistant Staphylococcus epidermidis after 16 hrs by agar dilution method; format: functional
[16] = tested on: Staphylococcus aureus; assay: Antibacterial activity against Staphylococcus aureus ATCC 29213 after 16 hrs by agar dilution method relative to Linezolid; format: functional
[17] = Clearance in Sprague-Dawley rat at 10 mg/kg, iv by LC-MS analysis; format: ADME, organism-based; parameters: dose 10 mg/kg, route intravenous; conditions: in vivo
[18] = tested on: Enterococcus faecalis; assay: Antibacterial activity against Enterococcus faecalis after 16 hrs by agar dilution method; format: functional
[19] = Half life in Sprague-Dawley rat at 10 mg/kg, iv by LC-MS analysis; format: ADME, organism-based; parameters: dose 10 mg/kg, route intravenous; conditions: in vivo
[20] = AUC (0 to infinity) in Sprague-Dawley rat at 50 mg/kg, po by LC-MS analysis; format: ADME, organism-based; parameters: time infinity, dose 50 mg/kg, route oral; conditions: plasma
[21] = tested on: Staphylococcus epidermidis; assay: Antibacterial activity against Linezolid-resistant Staphylococcus epidermidis after 16 hrs by agar dilution method relative to Linezolid; format: functional
[22] = tested on: Staphylococcus aureus; assay: Antibacterial activity against methicillin-resistant Staphylococcus aureus after 16 hrs by agar dilution method; format: functional
[23] = tested on: Staphylococcus aureus; assay: Antibacterial activity against methicillin-resistant Staphylococcus aureus ATCC 33591 infected in NSA mouse neutropenic model administered orally 1 hour after infection measured 48 hrs post-treatment; format: functional; conditions: ATCC 33591, po
[24] = tested on: Staphylococcus epidermidis; assay: Antibacterial activity against methicillin-resistant Staphylococcus epidermidis after 16 hrs by agar dilution method; format: functional
[25] = tested on: Enterococcus faecium; assay: Antibacterial activity against linezolid-resistant Enterococcus faecium after 16 hrs by agar dilution method; format: functional
[26] = tested on: Staphylococcus aureus; assay: Antibacterial activity against Linezolid-resistant Staphylococcus aureus after 16 hrs by agar dilution method relative to Linezolid; format: functional
[27] = tested on: Enterococcus faecalis; assay: Antibacterial activity against linezolid-resistant Enterococcus faecalis after 16 hrs by agar dilution method; format: functional
[28] = Oral bioavailability in Sprague-Dawley rat at 15 mg/kg by LC-MS analysis; format: ADME, organism-based; conditions: in vivo
[29] = Cmax in Sprague-Dawley rat at 15 mg/kg, po by LC-MS analysis; format: ADME, organism-based; parameters: dose 15 mg/kg, route oral; conditions: in vivo
[30] = Tmax in Sprague-Dawley rat at 15 mg/kg, po by LC-MS analysis; format: ADME, organism-based; parameters: dose 15 mg/kg, route oral; conditions: in vivo
[31] = tested on: Staphylococcus aureus; assay: Antibacterial activity against Staphylococcus aureus ATCC 19636 infected in mouse systemic infection model administered orally 1 hour after infection measured 48 hrs post-treatment relative to Linezolid; format: functional
[32] = Clearance in Sprague-Dawley rat at 15 mg/kg, iv by LC-MS analysis; format: ADME, organism-based; parameters: dose 15 mg/kg, route intravenous; conditions: in vivo
[33] = AUC (0 to infinity) in Sprague-Dawley rat at 15 mg/kg, po by LC-MS analysis; format: ADME, organism-based; parameters: time infinity, dose 15 mg/kg, route oral; conditions: plasma
[34] = Clearance in Sprague-Dawley rat at 15 mg/kg, po by LC-MS analysis; format: ADME, organism-based; parameters: dose 15 mg/kg, route oral; conditions: in vivo
[35] = Cmax in Sprague-Dawley rat at 15 mg/kg, iv by LC-MS analysis; format: ADME, organism-based; parameters: dose 15 mg/kg, route intravenous; conditions: in vivo
[36] = Half life in Sprague-Dawley rat at 15 mg/kg, po by LC-MS analysis; format: ADME, organism-based; parameters: dose 15 mg/kg, route oral; conditions: in vivo
[37] = tested on: Staphylococcus aureus; assay: Antibacterial activity against methicillin-resistant Staphylococcus aureus ATCC 33591 infected in NSA mouse neutropenic model administered orally 1 hour after infection measured 48 hrs post-treatment relative to Linezolid; format: functional

| Structure (SMILES) | MIC [1] [µg/mL] | fold change (FC) [2] | MIC [3] [µg/mL] | ED50 [7] [mg/kg] | MIC [11] [µg/mL] | fold change (FC) [12] | MIC [15] [µg/mL] | MIC [18] [µg/mL] | fold change (FC) [21] | MIC [22] [µg/mL] | ED50 [23] [mg/kg] | MIC [24] [µg/mL] | MIC [25] [µg/mL] | fold change (FC) [26] | MIC [27] [µg/mL] | other results |
| --- | --- | --- | --- | --- | --- | --- | --- | --- | --- | --- | --- | --- | --- | --- | --- | --- |
| CC(=O)NC[C@@H]1OC(=O)N2c3ccc(-c4ccc(N5CCOC5=O)nc4)cc3OC[C@@H]12 | 2 (≈ 4.71 µM) | 8 | 0.25 (≈ 0.589 µM) | 11.3 | 0.25 (≈ 0.589 µM) | 8 | 1 (≈ 2.36 µM) | 0.5 (≈ 1.18 µM) | 8 | 0.125 (≈ 0.295 µM) | 9.5 | 0.125 (≈ 0.295 µM) | 0.5 (≈ 1.18 µM) | 8 | 1 (≈ 2.36 µM) | fold change (FC) [4]: 4; bioavailability [5]: 18%; half-life [6]: 4.7 h; Tmax [8]: 6 h; fold change (FC) [9]: 4; fold change (FC) [10]: 4; Cmax [13]: 9000 ng/mL; AUC(0-inf) [14]: 136 µg·h/mL; fold change (FC) [16]: 4; clearance [17]: 1.28 mL/min/kg; half-life [19]: 3.7 h; AUC(0-inf) [20]: 123 µg·h/mL |
| CC(=O)NC[C@H]1CN(c2ccc(N3CCOCC3)c(F)c2)C(=O)O1 [LINEZOLID] | > 16 |  |  | 9.5 | 1 (≈ 2.96 µM) |  | 16 (≈ 47.4 µM) |  |  | 1 (≈ 2.96 µM) | 14.1 | 1 (≈ 2.96 µM) | 8 (≈ 23.7 µM) |  |  |  |
| CC(=O)NC[C@@H]1OC(=O)N2c3ccc(-c4ccc(C5(N)CC5)nc4)cc3OC[C@@H]12 | 16 (≈ 40.6 µM) |  | 0.5 (≈ 1.27 µM) |  | 0.25 (≈ 0.634 µM) |  | 4 (≈ 10.1 µM) | 0.5 (≈ 1.27 µM) |  | 0.25 (≈ 0.634 µM) |  | 0.25 (≈ 0.634 µM) | 4 (≈ 10.1 µM) |  | 4 (≈ 10.1 µM) |  |
| CC(=O)NC[C@@H]1OC(=O)N2c3ccc(-c4ccc(-c5nnnn5C)nc4)cc3OC[C@@H]12 | 4 (≈ 9.49 µM) |  | 0.25 (≈ 0.593 µM) |  | 0.5 (≈ 1.19 µM) |  | 2 (≈ 4.75 µM) | 0.5 (≈ 1.19 µM) |  | 0.25 (≈ 0.593 µM) |  | 0.25 (≈ 0.593 µM) | 1 (≈ 2.37 µM) |  | 1 (≈ 2.37 µM) |  |
| CC(=O)NC[C@@H]1OC(=O)N2c3ccc(-c4ccc(C(C)=O)nc4)cc3OC[C@@H]12 | 2 (≈ 5.24 µM) | 8 | 0.5 (≈ 1.31 µM) | > 20 | 0.5 (≈ 1.31 µM) | 8 | 1 (≈ 2.62 µM) | 0.5 (≈ 1.31 µM) | 8 | 0.25 (≈ 0.656 µM) |  | 0.25 (≈ 0.656 µM) | 1 (≈ 2.62 µM) | 8 | 1 (≈ 2.62 µM) |  |
| COc1ccc(-c2ccc3c(c2)OC[C@H]2[C@H](CNC(C)=O)OC(=O)N32)cn1 | 4 (≈ 10.8 µM) |  | 0.5 (≈ 1.35 µM) |  | 0.25 (≈ 0.677 µM) |  | 2 (≈ 5.41 µM) | 0.5 (≈ 1.35 µM) |  | 0.5 (≈ 1.35 µM) |  | 0.5 (≈ 1.35 µM) | 1 (≈ 2.71 µM) |  | 2 (≈ 5.41 µM) |  |
| CC(=O)NC[C@@H]1OC(=O)N2c3ccc(-c4ccc(C#CCO)nc4)cc3OC[C@@H]12 | 4 (≈ 10.2 µM) |  | 0.5 (≈ 1.27 µM) |  | 0.5 (≈ 1.27 µM) |  | 1 (≈ 2.54 µM) | 0.5 (≈ 1.27 µM) |  | 0.25 (≈ 0.635 µM) |  | 0.25 (≈ 0.635 µM) | 1 (≈ 2.54 µM) |  | 1 (≈ 2.54 µM) |  |
| CC(=O)NC[C@@H]1OC(=O)N2c3ccc(-c4ccc(C#N)nc4)cc3OC[C@@H]12 | 2 (≈ 5.49 µM) | 8 | 0.25 (≈ 0.686 µM) | 2.5 | 0.125 (≈ 0.343 µM) | 8 | 1 (≈ 2.74 µM) | 0.5 (≈ 1.37 µM) | 8 | 0.25 (≈ 0.686 µM) | < 5 | 0.25 (≈ 0.686 µM) | 0.5 (≈ 1.37 µM) | 8 | 1 (≈ 2.74 µM) | bioavailability [28]: 81%; Cmax [29]: 5000 ng/mL; Tmax [30]: 4 h; fold change (FC) [31]: 4; clearance [32]: 3.07 mL/min/kg; AUC(0-inf) [33]: 66 µg·h/mL; CL/F [34]: 3.82 mL/min/kg; Cmax [35]: 7000 ng/mL; half-life [36]: 5.5 h; fold change (FC) [37]: 3 |
| CC(=O)NC[C@@H]1OC(=O)N2c3ccc(-c4ccc([N+](=O)[O-])nc4)cc3OC[C@@H]12 | 2 (≈ 5.2 µM) |  | 0.5 (≈ 1.3 µM) |  | 0.125 (≈ 0.325 µM) |  | 2 (≈ 5.2 µM) | 0.5 (≈ 1.3 µM) |  | 0.25 (≈ 0.65 µM) |  | 0.25 (≈ 0.65 µM) | 1 (≈ 2.6 µM) |  | 1 (≈ 2.6 µM) |  |
